Laboratory results taken from patent US10899879B2, “Biodegradable trehalose glycopolymers” (THE REGENTS OF THE UNIVERSITY OF CALIFORNIA, priority 2014, dated 2021).

Columns and labels:
β-galactosidase (β-Gal) = conditions: three 12-hour desiccation cycles; 25 equivalents of trehalose; FIG. 12b
Procedure: The stabilization of β-Gal against lyophilization stress was also measured. […] The activity of β-Gal was determined by reaction with ortho-nitrophenol galactose (ONPG). When incubated with β-Gal, release of the yellow-colored o-nitrophenol from ONPG can be monitored at 405 nm.
The activity of β-Gal was determined by reaction with ortho-nitrophenol galactose (ONPG). When incubated with β-Gal, release of the yellow-colored o-nitrophenol from ONPG can be monitored at 405 nm.
Lyophilization studies with β-galactosidase were carried out as previously described; β-Gal was subjected to three 12 hour lyophliization cycles before dilution. Activity was assayed by monitoring the hydrolysis of o-nitrophenol galactose (ONPG) at 405 nm.

lysozyme = lysozyme (Gallus gallus, UniProt P00698); assay: Stabilization of lysozyme against heat stress with trehalose-CL as excipient; format: biochemical; conditions: lysozyme 0.02 mg/mL heated to 90° C. for 20 minutes; additive 5 to 25 wt eq.; FIG. 12a
Procedure: Stabilization of model proteins using trehalose-caprolactone as excipient. The ability of these biodegradable trehalose polymers to stabilize proteins was confirmed through heat and lyophilization stress assays. […] Therefore, these proteins were also selected to test the biodegradable trehalose polymers. First, lysozyme was stressed by heating to 90° C. for 20 minutes.
Trehalose-CL and a styrenyl ether trehalose (SET) polymer previously described were also directly compared in their stabilization of lysozyme (FIG. 13) (Lee et al., 2013). […] Thus, the degradable trehalose glycopolymer was similar in stabilization ability to the non-degradable version.

Sequence of lysozyme (P00698 19-147): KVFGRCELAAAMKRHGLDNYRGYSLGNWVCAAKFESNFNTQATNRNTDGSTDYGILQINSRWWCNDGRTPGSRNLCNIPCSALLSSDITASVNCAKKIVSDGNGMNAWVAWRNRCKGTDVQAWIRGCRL

Q: Which results are given for `OC[C@H]1O[C@H](O[C@H]2O[C@H](CO)[C@@H](O)[C@H](O)[C@H]2O)[C@H](O)[C@@H](O)[C@@H]1O` [trehalose]?
A: β-Gal native activity maintained after lyophilization stress, 25 equivalents of additive (β-galactosidase (β-Gal)): up to 67%; lysozyme native activity retained after heat stress (lysozyme): not significantly different from the negative control
